Results on one substance are retold here after patent US10203331B2, “Single cell drug response measurements via live cell interferometry” (The Regents of the University of California, priority 2011, dated 2019).

“Also recorded” adds a separate entry of the source.

Holding throughout (type): cell-based, human
Assay [1] relates to H929 multiple myeloma cells. Nature of the assay: LCI longitudinal single-cell mass accumulation profiling. The arrangement: mass accumulation rate (growth) of treated cells versus DMSO-treated controls: dose or concentration left out as unconfirmed. Conditions: for mass accumulation rate (growth) of treated cells versus DMSO-treated controls: Tunicamycin, data over five hours. The source says:
The live cell interferometer has been described in detail previously (1). Briefly, the system is an optical microscope, based on a modified Veeco NT9300 optical profiler, with a 20×0.28NA Michelson interference objective that allows for the observation of not only lateral features with typical optical resolution (1.16 μm for the 20× objective) but also height dimensions of reflective objects below the scale of one nanometer. The Michelson interferometer is composed of a beam splitter, reference mirror and compensating fluid cell to adjust for optical path differences induced by fluid surrounding the specimen. The phase shifting interferometry (PSI) (14) method was used to capture phase images of the cell bodies in situ. During measurement, a piezoelectric translator decreases the light path a small amount causing a phase shift between the test and reference beams. The system records the irradiance of the resulting interference pattern at many different phase shifts and then converts the irradiance to phase wavefront data by integrating the irradiance data using a PSI algorithm. As currently implemented, the autofocus and PSI measurement cycle takes 12 seconds. The PSI measurement itself takes 1-2 seconds, and is limited by the camera frame rate (60 fps). In this experiment, one set of 25 images, containing 400-1,000 cells, was captured every 7 minutes. Each set of 25 images contained hundreds of cells, with data from the first five images presented here, and therefore each run includes ˜80 cells. All cells within each of the selected images were measured.
The software native to the Veeco NT9300 allows automated optical thickness measurements of cells selected manually from the phase image. The optical thickness is converted to mass as described in the text, using the conversion constant, α=1.8×10^−3 m^3 kg^−1, consistent with Ross. (9) The boundary of each cell was automatically selected by an algorithm that partitions objects from the background using a threshold determined from the histogram of pixel heights. (15) Conversion of the raw phase image into optical thickness uses a series of well established ‘phase unwrapping’ routines. […] This error is easily detected as a non-physical discontinuity in optical thickness, and corrected by adding back one wavelength of optical thickness to the affected pixels. […]
H929 human multiple myeloma cells were maintained at 37° C. in 5% CO2 in RPMI 1640 growth media supplemented with 10% defined fetal bovine serum (HyClone) and antibiotics. […] Cell responses to external stimuli were measured for as long as seven hours in this configuration, and observed unperturbed cultures for up to twelve hours, although the upper limit of experiment duration has not been determined. […]

The subject of a further assay is CHOP (DDIT3) mRNA. Kind of assay: Quantitative RT-PCR for CHOP (DDIT3) mRNA in treated H929 cells. The following applies: treated H929 population, over five hours. The procedure:
(§1) H929 cells were seeded in 6-well culture plates at a density of 1×10^6 cells/well. Before plating cells in the LCI's observation chamber, either 1 μL of Tunicamycin (T7765; Sigma-Aldrich) in DMSO, or DMSO alone were added to the media at a concentration of 10 mg/ml, DMSO/media (1:1000 dilution). Mass measurements commenced one hour after the cells were plated in the observation chamber in order to allow the experimental system to stabilize, i.e.; culture acclimation, temperature stabilization, etc. For cell cycle analysis, cells from each time point were collected and incubated with a hypotonic DNA-staining buffer containing propidium iodide and later analyzed by flow cytometry. RNA for each time point was extracted using the Trizol reagent (Invitrogen).
(§2) CDNA was synthesized from 3 μg of total RNA with oligo(dT) primers using the Superscript III first strand cDNA synthesis kit (Invitrogen). RT-PCR for XBP1 spliced and unspliced isoforms were performed using Platinum Taq (Invitrogen) at an annealing temperature of 58° C. for 25 cycles. Quantitative RT-PCR for CHOP (DDIT3) mRNA was performed using the SYBR green real time PCR kit (Diagenode) and an Applied Biosystems (Foster City, Calif., USA) 7700 sequence detector as described (33). Samples were analyzed for 36b4 expression as a normalization control. Primer sequences are available on request.

Assay [2] relates to XBP1 mRNA splicing (XBP1-s). Nature of the assay: RT-PCR for XBP1 spliced and unspliced isoforms in treated H929 cells. The following applies: treated H929 population, over five hours. The procedure:
as §1, §2

The next assay concerns H929 cells. Kind of assay: Cell cycle analysis, propidium iodide flow cytometry. Here is the method: as §1
In general terms: In flow cytometry, cells or beads pass a laser one at a time.

As to Tunicamycin, the “time at which suppression of growth of the treated population appears” value in assay [1] (H929, treated vs untreated) is on record as “within two hours”. Besides, the figures for the “mass accumulation rate (growth) of treated cells versus DMSO-treated controls” value in assay [1] and in assay [1] (listed as TM) were “grow more slowly than do the controls; also recorded: much lower” and “slowing mass accumulation”, respectively. Besides, in assay [1] (with induction of XBP1 mRNA splicing), the “cell shrinkage or apoptosis” value is recorded as “not cell shrinkage or apoptosis”. The “CHOP transcription factor expression” value with CHOP (DDIT3) mRNA was “up-regulation”. Further, the “XBP1 alternative splicing (spliced form XBP1-s)” value is reported as “alternative splicing” in assay [2] and “up-regulation” in assay [2] (listed as TM). Besides, the “cells in G1/G0” value in the assay on H929 cells (by the end of five hours of treatment) was found to be 50%. In addition, in the assay with H929 cells (shift pronounced after three hours of exposure), the G2/M phase population result is listed as “rapid reduction”.
